Measured values reported in US20230085307A1, “PYRIDAZINONE COMPOUND AND HERBICIDE” (NISSAN CHEMICAL CORPORATION, priority 2019, published 2023).

Tests used:
[1] = tested on: Japanese bulrush; test: Test Example 1: herbicidal activity, application before weed generation under submerged conditions (Table 16, symbol B); type: in vivo, Japanese bulrush (Schoenoplectus juncoides); details: amount of applied herbicide 320 g/ha
In short: (§1)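 Alluvial soil was flooded to 4 cm depth, weed seeds were sown mixed and 2.5-leaf rice seedlings were transplanted. On sowing day, the compound's emulsion, diluted in water to a set dose, was applied to the water surface. Plants grew at 25–30 °C and were scored 0–5 after three weeks.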

[2] = tested on: oval-leafed pondweed; test: Test Example 1: herbicidal activity, application before weed generation under submerged conditions (Table 16, symbol C); type: in vivo, oval-leafed pondweed (Monochoria vaginalis); details: amount of applied herbicide 320 g/ha
In short: as §1

[3] = tested on: Japanese bulrush; test: Test Example 2: herbicidal activity, application during weed generation under submerged conditions (Table 17, symbol B); type: in vivo, Japanese bulrush (Schoenoplectus juncoides); details: AAH 320 g/ha; application during weed generation, submerged conditions
In short: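 In this pot test, flooded alluvial soil (water depth 4 cm) holds all three species sown as a mixture. Once seedlings have one to two leaves, the compound's emulsion, thinned with water to the intended dose, is poured on the water; grading follows after three weeks on the earlier criteria.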

[4] = tested on: rice flat sedge; test: Test Example 3: herbicidal effect by foliage application, Wagner pot (Table 18, symbol E); type: in vivo, rice flat sedge (Cyperus iria); details: 320 g/ha
In short: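 Plants were sown in alluvial soil held under 0.1–0.5 cm standing water and grown 14 days in a greenhouse at 25–30 °C. An emulsifiable formulation, water-diluted to the set dose, was then sprayed onto the foliage, and effects were scored three weeks later using previously defined criteria.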

[5] = tested on: southern crabgrass; test: Test Example 4: herbicidal effect by soil treatment (Table 19, symbol F); type: in vivo, southern crabgrass (Digitaria ciliaris); details: amount of applied herbicide 320 g/ha
In short: (§2)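 Three weeks of greenhouse growth at 25° C. to 30° C. followed a uniform surface spray of water-diluted emulsion at a predetermined herbicide amount. Seeds had been sown beforehand under about 1.5 cm of sterilized diluvial soil. Grading followed criteria set out in an earlier test.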

[6] = tested on: barnyard grass; test: Test Example 4: herbicidal effect by soil treatment (Table 19, symbol H); type: in vivo, barnyard grass (Echinochloa crus-galli); details: amount of applied herbicide 320 g/ha
In short: as §2

[7] = tested on: wild oat; test: Test Example 4: herbicidal effect by soil treatment (Table 19, symbol I); type: in vivo, wild oat (Avena fatua); details: amount of applied herbicide 320 g/ha
In short: as §2

[8] = tested on: blackgrass; test: Test Example 4: herbicidal effect by soil treatment (Table 19, symbol J); type: in vivo, blackgrass (Alopecurus myosuroides); details: amount of applied herbicide 320 g/ha
In short: as §2

[9] = tested on: Italian ryegrass; test: Test Example 4: herbicidal effect by soil treatment (Table 19, symbol K); type: in vivo, Italian ryegrass (Lolium multiflorum); details: amount of applied herbicide 320 g/ha
In short: as §2

[10] = tested on: lambsquarters; test: Test Example 4: herbicidal effect by soil treatment (Table 19, symbol O); type: in vivo, lambsquarters (Chenopodium album); details: amount of applied herbicide 320 g/ha
In short: as §2

[11] = tested on: chickweed; test: Test Example 4: herbicidal effect by soil treatment (Table 19, symbol P); type: in vivo, common chickweed (Stellaria media); details: amount of applied herbicide 320 g/ha
In short: as §2

[12] = tested on: persian speedwell; test: Test Example 4: herbicidal effect by soil treatment (Table 19, symbol R); type: in vivo, Persian speedwell (Veronica persica); details: amount of applied herbicide 320 g/ha
In short: as §2

[13] = tested on: southern crabgrass; test: Test Example 5: herbicidal effect by foliage application, plastic box (Table 20, symbol F); type: in vivo, southern crabgrass (Digitaria ciliaris); details: foliage application, 320 g/ha, three weeks after application
In short: (§3)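 Plants sown in sterilized diluvial soil and grown 14 days in a greenhouse at 25° C to 30° C, then sprayed on the foliage with the compound's emulsion diluted in water to a predetermined herbicide amount. Injury to weeds and crops scored three weeks after application on a visual rating scale.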

[14] = tested on: blackgrass; test: Test Example 5: herbicidal effect by foliage application, plastic box (Table 20, symbol J); type: in vivo, blackgrass (Alopecurus myosuroides); details: foliage application, 320 g/ha, three weeks after application
In short: as §3

[15] = tested on: Italian ryegrass; test: Test Example 5: herbicidal effect by foliage application, plastic box (Table 20, symbol K); type: in vivo, Italian ryegrass (Lolium multiflorum); details: foliage application, 320 g/ha, three weeks after application
In short: as §3

[16] = tested on: chickweed; test: Test Example 5: herbicidal effect by foliage application, plastic box (Table 20, symbol P); type: in vivo, common chickweed (Stellaria media); details: foliage application, 320 g/ha, three weeks after application
In short: as §3

[17] = tested on: persian speedwell; test: Test Example 5: herbicidal effect by foliage application, plastic box (Table 20, symbol R); type: in vivo, Persian speedwell (Veronica persica); details: foliage application, 320 g/ha, three weeks after application
In short: as §3

SMILES | Herbicidal effect, B: Japanese bulrush [1] | Herbicidal effect, C: oval-leafed pondweed [2] | herbicidal effect rating, B: Japanese bulrush [3] | herbicidal effect on rice flat sedge (E) [4] | F: southern crabgrass, herbicidal effect grade [5] | H: barnyard grass, herbicidal effect grade [6] | I: wild oat, herbicidal effect grade [7] | J: blackgrass, herbicidal effect grade [8] | K: Italian ryegrass, herbicidal effect grade [9] | O: lambsquarters, herbicidal effect grade [10] | P: chickweed, herbicidal effect grade [11] | R: persian speedwell, herbicidal effect grade [12] | F: southern crabgrass, herbicidal effect grade [13] | J: blackgrass, herbicidal effect grade [14] | K: Italian ryegrass, herbicidal effect grade [15] | P: chickweed, herbicidal effect grade [16] | R: persian speedwell, herbicidal effect grade [17]
COc1ccccc1-c1sc2cc(OCC(F)F)ccc2c1-c1c(O)c(C)nn(C)c1=O [3-114] | 5 (Herbicidal rate of 90% or more (almost completely withered)) | 5 (Herbicidal rate of 90% or more (almost completely withered)) | 4 (Herbicidal rate of 70% or more and less than 90%) | 5 (Herbicidal rate of 90% or more (almost completely withered)) | 4 (Herbicidal rate of 70% or more and less than 90%) | 5 (Herbicidal rate of 90% or more (almost completely withered)) | 0 (Herbicidal rate of 5% or less (almost no effect)) | 5 (Herbicidal rate of 90% or more (almost completely withered)) | 5 (Herbicidal rate of 90% or more (almost completely withered)) | 5 (Herbicidal rate of 90% or more (almost completely withered)) | 5 (Herbicidal rate of 90% or more (almost completely withered)) | 5 (Herbicidal rate of 90% or more (almost completely withered)) | 5 (Herbicidal rate of 90% or more (almost completely withered)) | 5 (Herbicidal rate of 90% or more (almost completely withered)) | 5 (Herbicidal rate of 90% or more (almost completely withered)) | 5 (Herbicidal rate of 90% or more (almost completely withered)) | 5 (Herbicidal rate of 90% or more (almost completely withered))
CCOc1ccccc1-c1sc2cc(OCCOC)ccc2c1-c1c(O)c(C)nn(C)c1=O [3-123] | 5 (Herbicidal rate of 90% or more (almost completely withered)) | 5 (Herbicidal rate of 90% or more (almost completely withered)) | 3 (Herbicidal rate of 40% or more and less than 70%) | 5 (Herbicidal rate of 90% or more (almost completely withered)) | 5 (Herbicidal rate of 90% or more (almost completely withered)) | 5 (Herbicidal rate of 90% or more (almost completely withered)) | 4 (Herbicidal rate of 70% or more and less than 90%) | 4 (Herbicidal rate of 70% or more and less than 90%) | 5 (Herbicidal rate of 90% or more (almost completely withered)) | 5 (Herbicidal rate of 90% or more (almost completely withered)) | 5 (Herbicidal rate of 90% or more (almost completely withered)) | 5 (Herbicidal rate of 90% or more (almost completely withered)) | 5 (Herbicidal rate of 90% or more (almost completely withered)) | 5 (Herbicidal rate of 90% or more (almost completely withered)) | 5 (Herbicidal rate of 90% or more (almost completely withered)) | 5 (Herbicidal rate of 90% or more (almost completely withered)) | 5 (Herbicidal rate of 90% or more (almost completely withered))
COc1ccccc1-c1sc2cc(OCCSC)ccc2c1-c1c(O)c(C)nn(C)c1=O [3-125] | 3 (Herbicidal rate of 40% or more and less than 70%) | 1 (Herbicidal rate of 5% or more and less than 20%) | 3 (Herbicidal rate of 40% or more and less than 70%) | 5 (Herbicidal rate of 90% or more (almost completely withered)) | 3 (Herbicidal rate of 40% or more and less than 70%) | 0 (Herbicidal rate of 5% or less (almost no effect)) | 0 (Herbicidal rate of 5% or less (almost no effect)) | 5 (Herbicidal rate of 90% or more (almost completely withered)) | 5 (Herbicidal rate of 90% or more (almost completely withered)) | 5 (Herbicidal rate of 90% or more (almost completely withered)) | 5 (Herbicidal rate of 90% or more (almost completely withered)) | 5 (Herbicidal rate of 90% or more (almost completely withered)) | 5 (Herbicidal rate of 90% or more (almost completely withered)) | 5 (Herbicidal rate of 90% or more (almost completely withered)) | 5 (Herbicidal rate of 90% or more (almost completely withered)) | 5 (Herbicidal rate of 90% or more (almost completely withered)) | 5 (Herbicidal rate of 90% or more (almost completely withered))
